# Reference: patent publication US9782368B2, “Use of N,N-bis-2-mercaptoethyl isophthalamide” (EMERAMED LIMITED, priority 2014, dated 2017)
# Like-named read-outs stand apart in the source and are kept apart here.
# Legend:
# [1] = Ascorbate depletion assay, CuSO4-sponsored oxidation, recycling of DHA; settings: CuSO4 model
# Procedure: The kinetics of ascorbate oxidation, sponsored by both 1 μM 9,10-PQ and 2 μM copper sulphate (CuSO4), was examined using the ascorbate depletion assay (Kelly et al, Res. Rep. Health Eff. Inst., 163, 3 (2011). 9,10-PQ was employed so that the action of NBMI could be examined in isolation of its chelation properties.
# All experiments were performed in triplicate in UV 96 well flat-bottomed plates (Greiner bio-one) at a final volume of 200 μL. Exposures were initiated by the addition of 20 μL of a concentrated stock of ascorbate (2 mM) into each well containing 160 μL of Chelex-100 resin treated water (containing 10% DMSO), plus either 10 μL of water, CuSO4 stock solution at 4 mM or 9,10-PQ stock solution at 2 mM, and 10 μL of NMBI (4 mM and […]).
# All solutions were prepared in Chelex-100 resin treated water (containing 10% DMSO). This yielded final concentrations in the wells of […], 2 μM CuSO4, or 1 μM 9,10-PQ and between 10 and 200 μM of NBMI.
# Immediately prior to the addition of the ascorbate to each assay well, the plate was pre-incubated for 10 minutes at 37° C. in a plate reader (Spectra Max 190). During the exposure, the plate was maintained at this temperature. After addition of ascorbate, the concentration remaining in each well was monitored every 2 minutes for a period of two hours by measuring the absorbance at 265 nm. The ascorbate concentration was determined with reference to a standard curve, with the rate of ascorbate oxidation determined by performing a linear regression through the initial part of a concentration verses time plot using Microcal Software Limited's OriginLab (version 5.0). This was performed for each of the triplicates and the rate of ascorbate depletion was finally expressed as mean mol s 1×10^−9 depletion of ascorbate±standard deviation.
# For the experiments in which the impact of adding NBMI to the ascorbate was measured, CuSO4 and 9,10-PQ depletion assays were examined later in the time course. The plates were ran with 190 μL only for the first 55-60 minutes, after which they were removed from the plate reader and 10 μL of either the NMBI or the known reducing agent, DTT stock solution, or water was added to each well. The plate was then returned to the plate reader and the absorbance at 265 nm monitored for a further 60 minutes.
# The immediate increase in the measured ascorbate concentrations was determined and is referred to as the ‘jump’, as a measure of immediate recycling capacity. The sustained ‘increase’ over the remaining 60 minutes of the incubation was also determined.
# [2] = system: cigarette smoke (CS)-induced airway disease; format: in vivo, BALB/c mice; settings: for weight gained compared to start weight: CS-exposed
# Procedure: The 14 day dose-finding study was therefore followed by a 90 day study using essentially the same apparatus and protocol described in Example 4 above. On this occasion, the 5 treatment groups were as follows: • 1. Daily exposure to clean air (Placebo Group; Gr. 1) • 2. Daily exposure to CS (CS-Exposed Placebo Group; Gr. 2) • 3. Daily exposure to CS; treated with NBMI at a 30 mg/kg dose (NBMI 30 mg/kg Group; Gr. 3) • 4. Daily exposure to CS; treated with NBMI at a 60 mg/kg dose (NBMI 60 mg/kg Group; Gr. 4) • 5. Daily exposure to CS; treated with NBMI at a 150 mg/kg dose (NBMI 150 mg/kg Group; Gr. 5) On Day 91, animals were weighed and anesthetised with pentobarbital sodium (90 mg/kg body weight, i.p.). Mice were tracheotomised with an 18-gauge cannula and mechanically ventilated in a quasi-sinusoidal fashion with a small animal ventilator (flexiVent™, SCIREQ®) at a frequency of 3 Hz and a tidal volume (VT) of 12 ml/kg body weight. A positive end-expiratory pressure of 3 cm H2O was applied. The animal's cardiac output was monitored throughout the respiratory mechanics assessment. Mice were paralysed with pancuronium (0.1 mg/kg body weight, i.p. (local suppliers)) before 4 sigh manoeuvres at 3×VT were performed at the beginning of the experiment to establish stable baseline respiratory mechanics and to ensure a similar volume history before the experiment. Dynamic lung mechanics were measured by applying a sinusoidal standardised breath and analysed using the single compartment model and multiple linear regression, giving respiratory resistance (RRS), elastance (ERS) and compliance (CRS). The measurement of RRS reflects both narrowing of the conducting airways and alterations in the lung. The measurement of CRS and ERS reflects only events in the lung periphery, particularly airway closure leading to lung unit de-recruitment. By contrast, a selective change in CRS is indicative of a more distal site of action. More thorough evaluations of lung mechanics were made using forced oscillation technique (FOT) according to Jonasson et al., Respir. Res., 9, 23 (2008) and Respir. Physiol. Neurobiol., 165, 229 (2009). The parameters obtained from the FOT measurements in this study were: Newtonian resistance (RN), tissue damping (G), which is closely related to tissue resistance and reflects energy dissipation in the lung tissues; and tissue elastance (H), which characterises tissue stiffness and reflects energy storage in the tissues. Dynamic pressure-volume (PV) curves were determined by inflating the lungs to a maximum pressure of 30 cm H2O, allowing passive exhalation using the computer-controlled Flexivent ventilator for measuring volume and pressure. Individual results from each animal were compiled. All PV-measurements were performed in triplicate. Quasi-static PV loops were obtained by a slow stepwise inflation and deflation of the lungs. PV loops were performed for PEEP-levels, 3 cm H2O. The shape factor (k) of the descending limb of the PV loop was calculated by fitting the data to the Salazar-Knowles equation. The value of the parameter k is believed to change characteristically with both fibrosis and emphysema. The quasi-static compliance (Cst) and elastance (Est) and the volume air inspired sufficient to reach 20 cm water were also obtained. Bronchoalveolar lavage (BAL) was carried out essentially as described in Example 4 above, as was flow cytometry analysis of cells from BAL and analysis of inflammatory mediators in BAL and serum. Frozen lung tissue was homogenised together with 1 mL PBS in a 2 mL tube, using a mixer mill (Retch mm400) for 2 minutes at 4° C. Immediately after homogenisation, the tube was centrifuged for 15 minutes (1500 rpm, 4° C.). The supernatant was removed and saved for protein concentration determination using a NanoDrop spectrophotometer (Proteins A280). After analysing the protein content, equal amounts of protein from each sample were saved for the transforming growth factor beta (TGFβ) 1-3 analysis. […]
structure (smiles),measurement,setting,value
"O=C(NCCS)c1cccc(C(=O)NCCS)c1 [NBMI, N,N-bis-2-mercaptoethyl isophthalamide]",immediate 'jump' in ascorbate concentration,[1]; 200 μM added at 60 minutes,24.98 ± 5.54 µM
same,sustained 'increase' in ascorbate over remaining 60 minutes,[1]; 200 μM added at 60 minutes,25.45 ± 2.45 µM
same,subsequent rate of oxidation after addition,"[1]; addition at 10, 20 and 30 minutes",quenched
same,respiratory function (PV-curves) vs placebo group Gr. 2,"[2]; 30, 60 and 150 mg/kg",did not display significantly changed respiratory function
same,macrophages in BAL fluid,"[2]; 30, 60 and 150 mg/kg, Day 90",did not have significantly lower numbers of macrophages
same,weight gained compared to start weight,"[2]; Day 90, Gr. 3, 30 mg/kg",1.0 ± 0.4 g
same,weight gained compared to start weight,"[2]; Day 90, Gr. 4, 60 mg/kg",0.7 ± 0.2 g
same,weight gained compared to start weight,"[2]; Day 90, Gr. 5, 150 mg/kg",0.6 ± 0.2 g
same,percentage of T helper (CD4+/CD3+) and T cytotoxic (CD8+/CD3+) lymphocytes in BAL fluid,"[2]; FACS, NBMI-treated groups",not significant altered
same,neutrophils in BAL fluid,"[2]; Gr. 4, 60 mg/kg",tendency to a lower number of neutrophils
same,neutrophils in BAL fluid,"[2]; Gr. 5, 150 mg/kg",tendency to a lower number of neutrophils
same,GM-CSF level in serum vs Gr. 2,"[2]; Gr. 5, 150 mg/kg, p<0.01",lowered
same,MIP-1β level in serum vs Gr. 2,"[2]; Gr. 5, 150 mg/kg, p<0.05",lowered
same,T cytotoxic (CD8+/CD3+) lymphocytes in BAL fluid vs Gr. 2,[2]; NBMI-treated animals,significant decrease
same,lymphocytes in BAL fluid (tendency),[2]; all NBMI-treated groups,a lower number of lymphocytes
same,TGFβ1-3 in lung homogenate vs Gr. 2,[2]; animals receiving NBMI,did not have significantly changed amount
